Results: patent publication US8501752B2, “Methods for treating cancer and other pathological proliferating disorders by inhibiting mitosis using pyrrolo[2,3-d]pyrimidines” (Duquesne University of the Holy Ghost, priority 2005, dated 2013)
Where two headings read alike, the source gives them in different places.

Tests used:
SNB-75 = test: NCI IVCLSP growth inhibition (SRB), SNB-75; format: cell-based, human; conditions: 48 h drug incubation
Procedure: (§1) FIG. 1 presents nine compounds that were tested using the National Cancer Institute (NCI) 60 human tumor cell lines. The cells lines, which represent leukemia, melanoma, and cancers of the lung, colon, brain, ovary, breast, prostate, and kidney, are listed in Table 1.
(§2) Compounds 1-9 were tested according to the NCI Developmental Therapeutics Program (DTP) In Vitro Cell Line Screening Project (IVCLSP). […] Methodology for testing under the IVCLSP is as follows: The human tumor cell lines of the cancer screening panel are grown in RPMI 1640 medium containing 5% fetal bovine serum and 2 mM L-glutamine. […]
(§3) Following drug addition, the plates are incubated for an additional 48 h at 37° C., 5% CO2, 95% air, and 100% relative humidity. […] Bound stain is subsequently solubilized with 10 mM trizma base, and the absorbance is read on an automated plate reader at a wavelength of 515 nm. […] Using the seven absorbance measurements [time zero, (Tz), control growth, (C), and test growth in the presence of drug at the five concentration levels (Ti)], the percentage growth is calculated at each of the drug concentrations levels. Percentage growth inhibition is calculated as: [(Ti−Tz)/(C−Tz)]×100 for concentrations for which Ti>/=Tz [(Ti−Tz)/Tz]×100 for concentrations for which Ti<Tz.
(§4) Three dose response parameters are calculated for each experimental agent. […]

UO-31 = test: NCI IVCLSP growth inhibition (SRB), UO-31; format: cell-based, human; conditions: 48 h drug incubation
Procedure: as §1, §2, §3, §4

IGROVI = test: NCI IVCLSP growth inhibition (SRB), IGROVI; format: cell-based, human; conditions: 48 h drug incubation
Procedure: as §1, §2, §3, §4

HS 578T = test: NCI IVCLSP growth inhibition (SRB), HS 578T; format: cell-based, human; conditions: 48 h drug incubation
Procedure: as §1, §2, §3, §4

NCI/ADR cells = test: Cytotoxicity, NCI/ADR cells that overexpress P-glycoprotein; conditions: for IC50: mean ± SEM for 3 experiments
From the text: These cell lines are resistant to anticancer drugs due to overexpression of the transport proteins P-glycoprotein or MRP1.

SK-MEL-2 = test: NCI IVCLSP growth inhibition (SRB), SK-MEL-2; format: cell-based, human; conditions: 48 h drug incubation
Procedure: as §1, §2, §3, §4

RPM1-8226 = test: NCI IVCLSP growth inhibition (SRB), RPM1-8226; format: cell-based, human; conditions: 48 h drug incubation
Procedure: as §1, §2, §3, §4

NCI-H23 = test: NCI IVCLSP growth inhibition (SRB), NCI-H23; format: cell-based, human; conditions: 48 h drug incubation
Procedure: as §1, §2, §3, §4

MDA-MB-231/ATCC = test: NCI IVCLSP growth inhibition (SRB), MDA-MB-231/ATCC; format: cell-based, human; conditions: 48 h drug incubation
Procedure: as §1, §2, §3, §4

TKIO = test: NCI IVCLSP growth inhibition (SRB), TKIO; format: cell-based, human; conditions: 48 h drug incubation
Procedure: as §1, §2, §3, §4

UACC-257 = test: NCI IVCLSP growth inhibition (SRB), UACC-257; format: cell-based, human; conditions: 48 h drug incubation
Procedure: as §1, §2, §3, §4

M14 = test: NCI IVCLSP growth inhibition (SRB), M14; format: cell-based, human; conditions: 48 h drug incubation
Procedure: as §1, §2, §3, §4

SK-MEL-5 = test: NCI IVCLSP growth inhibition (SRB), SK-MEL-5; format: cell-based, human; conditions: 48 h drug incubation
Procedure: as §1, §2, §3, §4

NCI-H226 = test: NCI IVCLSP growth inhibition (SRB), NCI-H226; format: cell-based, human; conditions: 48 h drug incubation
Procedure: as §1, §2, §3, §4

OVCAR-5 = test: NCI IVCLSP growth inhibition (SRB), OVCAR-5; format: cell-based, human; conditions: 48 h drug incubation
Procedure: as §1, §2, §3, §4

PC-3 = test: NCI IVCLSP growth inhibition (SRB), PC-3; format: cell-based, human; conditions: 48 h drug incubation
Procedure: as §1, §2, §3, §4

P-glycoprotein = target: T1, P-glycoprotein (Homo sapiens, UniProt P08183); test: P-glycoprotein antagonism: sensitivity of NCI/ADR cells to vinblastine; format: cell-based; conditions: absence or presence of 50 nM vinblastine
T1 construct: NCI/ADR cells that overexpress P-glycoprotein; endogenous in cells; host or cells: NCI/ADR cells
T1 sequence (P08183 whole entry): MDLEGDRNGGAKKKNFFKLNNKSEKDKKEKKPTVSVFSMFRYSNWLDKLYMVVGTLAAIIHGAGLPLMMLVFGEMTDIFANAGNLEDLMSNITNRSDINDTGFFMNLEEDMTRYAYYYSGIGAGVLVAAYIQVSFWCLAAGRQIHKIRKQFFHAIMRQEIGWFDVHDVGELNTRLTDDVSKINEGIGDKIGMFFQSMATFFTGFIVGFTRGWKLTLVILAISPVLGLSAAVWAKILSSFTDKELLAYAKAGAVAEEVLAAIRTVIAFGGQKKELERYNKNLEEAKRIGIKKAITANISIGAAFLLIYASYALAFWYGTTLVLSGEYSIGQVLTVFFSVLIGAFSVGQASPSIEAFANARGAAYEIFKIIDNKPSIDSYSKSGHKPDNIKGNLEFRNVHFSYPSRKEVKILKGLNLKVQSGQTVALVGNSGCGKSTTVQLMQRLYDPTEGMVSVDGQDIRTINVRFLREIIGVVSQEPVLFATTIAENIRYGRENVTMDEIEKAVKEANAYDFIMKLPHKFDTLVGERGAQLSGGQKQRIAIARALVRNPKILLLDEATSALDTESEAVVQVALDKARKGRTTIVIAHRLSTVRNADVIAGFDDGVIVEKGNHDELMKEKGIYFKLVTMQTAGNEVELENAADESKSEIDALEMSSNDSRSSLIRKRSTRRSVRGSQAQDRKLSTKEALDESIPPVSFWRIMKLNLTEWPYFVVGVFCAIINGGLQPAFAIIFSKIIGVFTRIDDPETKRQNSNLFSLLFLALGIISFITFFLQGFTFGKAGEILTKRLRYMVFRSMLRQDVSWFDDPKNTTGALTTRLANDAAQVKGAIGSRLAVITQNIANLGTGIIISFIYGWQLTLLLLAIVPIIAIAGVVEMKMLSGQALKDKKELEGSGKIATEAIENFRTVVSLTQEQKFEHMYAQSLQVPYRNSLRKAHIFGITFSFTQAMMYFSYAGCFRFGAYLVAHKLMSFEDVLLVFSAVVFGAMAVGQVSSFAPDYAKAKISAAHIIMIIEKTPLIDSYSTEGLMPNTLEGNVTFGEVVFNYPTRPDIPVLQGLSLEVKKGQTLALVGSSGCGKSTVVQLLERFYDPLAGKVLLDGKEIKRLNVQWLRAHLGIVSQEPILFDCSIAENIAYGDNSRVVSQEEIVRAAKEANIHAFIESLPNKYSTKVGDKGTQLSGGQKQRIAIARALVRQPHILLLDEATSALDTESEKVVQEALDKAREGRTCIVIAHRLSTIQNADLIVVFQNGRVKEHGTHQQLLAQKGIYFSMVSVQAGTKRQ
From the text: To determine if this is due to inhibition of drug transport activity by these proteins, the effects of these compounds on P-glycoprotein were further characterized. The effects of the compounds on the sensitivity of NCI/ADR cells to vinblastine and of MCF-7/VP cells to vincristine were examined to evaluate antagonism of P-glycoprotein and MRP1, respectively. FIGS. 4a-b present graphs of antagonism score versus concentration for P-glycoprotein and MRP1, respectively.
The Pgp antagonism score is calculated as the percentage survival of cells in the absence of vinblastine/percentage survival in the presence of vinblastine. […] The MRP1 antagonism score is calculated as the percentage survival of cells in the absence of vincristine/percentage survival in the presence of vincristine. […] Concentrations of Compounds 1-5 above their IC50 toward MCF-7 cells are not indicated. Data for one of three similar experiments is shown.

786-0 = test: NCI IVCLSP growth inhibition (SRB), 786-0; format: cell-based, human; conditions: 48 h drug incubation
Procedure: as §1, §2, §3, §4

BT-549 = test: NCI IVCLSP growth inhibition (SRB), BT-549; format: cell-based, human; conditions: 48 h drug incubation
Procedure: as §1, §2, §3, §4

For `COc1cc(CCc2cn(Cc3ccccc3)c3nc(N)nc(C)c23)cc(OC)c1OC` [Compound 1], the GI50 (SNB-75) was 358 nM, the GI50 (UO-31) was 347 nM and the GI50 (IGROVI) was 61.1 nM. The GI50 (HS 578T) was 283 nM, the “Resistance (NCI/ADR relative to MCF-7)” value (NCI/ADR cells; P-glycoprotein) was 1.3 and the IC50 (NCI/ADR cells; read-out: Cytotoxicity IC50, NCI/ADR) was 250 ± 120 nM. For the same molecule, the IC50 (NCI/ADR cells; read-out: drug sensitivity (IC50), NCI/ADR, Table 4, P-glycoprotein overexpressing) was 350 ± 40 nM, the GI50 (SK-MEL-2) was 381 nM and the GI50 (RPM1-8226) was 439 nM. It also gave a GI50 (NCI-H23) of 278 nM, a GI50 (MDA-MB-231/ATCC) of 595 nM and a GI50 (TKIO) of 961 nM. The GI50 (UACC-257) was 80.2 nM, the GI50 (M14) was 77 nM and the GI50 (SK-MEL-5) was 61.1 nM. The GI50 (NCI-H226) was 195 nM, the GI50 (OVCAR-5) was greater than 1000 nM and the GI50 (PC-3) was 47.9 nM. For the same molecule, the “effect on P-glycoprotein-mediated resistance (in words)” value (P-glycoprotein) was “no affect on P-glycoprotein at doses below its IC50”, the GI50 (786-0) was 254 nM and the GI50 (BT-549) was greater than 1000 nM.
